Data as given in ChEMBL document CHEMBL3045154, “Synthesis and Insecticidal Activity of 1, 3-Dithianes” (1991).

How the values were obtained:
Assay type in all cases: functional
[1] = system: Henosepilachna vigintioctopunctata; test: Insecticidal activity against third-instar larvae of Henosepilachna vigintioctopunctata assessed as mortality at 100 ppm after 2 days; conditions: 48 h
Tetranychus urticae = test: Insecticidal activity against Tetranychus urticae (two-spotted spider mite) in kidney bean plant leaf assessed as mortality at 500 ppm after 2 days; conditions: 48 h
Chilo suppressalis = test: Insecticidal activity against 5th instar larva of Chilo suppressalis assessed as mortality at 50 ug/g after 48 hr

Row | SMILES | mortality at 100 ppm [1] | mortality at 500 ppm (Tetranychus urticae) | mortality (Chilo suppressalis)
1 | CN(C)C1CSCSC1 | 10% | 20% | 30%
2 | CC1SCC(N(C)C)CS1 (stereo unspecified) | 10% | 30% | 10%
3 | CN(C)C1CSC(C#N)(c2ccccc2)SC1 (stereo unspecified) | 30% | 100% | 100%
4 | CN(C)C1CSC(C#N)(c2ccc(Cl)cc2)SC1 (stereo unspecified) | – | 100% | 100%
5 | CN(C)C1CSC(C#N)(C(N)=O)SC1 (stereo unspecified) | 85% | 100% | 100%
6 | CNC(=O)C1(C#N)SCC(N(C)C)CS1 (stereo unspecified) | 85% | 100% | 100%
7 | N#CC1(C(=O)O)SCCCS1 | – | 0% | 0%
8 | N#CC1(c2ccc(Cl)cc2)SCCCS1 | – | 0% | 0%
9 | N#CC1(c2ccc(Cl)cc2)SCC(O)CS1 (stereo unspecified) | – | 30% | 0%
10 | O=C(c1ccccc1)C1(C(=O)c2ccccc2)SCC(O)CS1 | – | 40% | 0%
11 | CCOP(=S)(OCC)OC1CSC(C#N)(c2ccc(Cl)cc2)SC1 (stereo unspecified) | – | 40% | 0%
12 | CC(C)C(C(=O)OC1CSC(C#N)(c2ccc(Cl)cc2)SC1)c1ccc(Cl)cc1 (stereo unspecified) | – | 20% | 0%
13 | CNC(=O)OC1CSC(C#N)(c2ccc(Cl)cc2)SC1 (stereo unspecified) | – | 30% | 0%
14 | N#CC1(c2ccc(Cl)cc2)SCC(OC(=O)Nc2ccc(Cl)cc2)CS1 (stereo unspecified) | – | 60% | 0%
15 | CNC1CSC(C#N)(c2ccc(Cl)cc2)SC1 (stereo unspecified) | – | 30% | 10%
16 | CCN(CC)C1CSC(C#N)(c2ccc(Cl)cc2)SC1 (stereo unspecified) | – | 100% | 100%
17 | CCCCN(CCCC)C1CSC(C#N)(c2ccc(Cl)cc2)SC1 (stereo unspecified) | – | 100% | 50%
18 | N#CC1(c2ccc(Cl)cc2)SCC(N2CCCC2)CS1 (stereo unspecified) | – | 100% | 50%
19 | N#CC1(c2ccc(Cl)cc2)SCC(N2CCOCC2)CS1 (stereo unspecified) | – | 90% | 50%

Row | SMILES | mortality at 100 ppm [1] | mortality at 500 ppm (Tetranychus urticae) | mortality (Chilo suppressalis)
20 | CCOC(=O)C1(C(=O)OCC)SCC(N(C)C)CS1 | 85% | 100% | 100%
21 | CCOC(=O)C1(C(C)=O)SCC(N(C)C)CS1 (stereo unspecified) | 30% | 100% | 100%
22 | CCOC(=O)C1(C(=O)c2ccccc2)SCC(N(C)C)CS1 (stereo unspecified) | 30% | 90% | 100%
23 | CC(=O)C1(C(C)=O)SCC(N(C)C)CS1 | 70% | 40% | 100%
24 | CC(=O)C1(C(=O)c2ccccc2)SCC(N(C)C)CS1 (stereo unspecified) | 35% | 80% | 100%
25 | CN(C)C1CSC(C(=O)c2ccccc2)(C(=O)c2ccccc2)SC1 | 100% | 80% | 100%
26 | CN(C)C1CSC(C(N)=O)(C(N)=O)SC1 | 100% | 60% | 100%
27 | CCOC(=O)C1(C#N)SCC(N(C)C)CS1 (stereo unspecified) | 60% | 100% | 100%
28 | CCN(CC)C(=S)SC1(C#N)SCC(N(C)C)CS1 (stereo unspecified) | 100% | 90% | 100%
29 | CCOP(=O)(OCC)C1(C#N)SCC(N(C)C)CS1 (stereo unspecified) | 5% | 100% | 100%
30 | CN(C)C1CSC(C#N)(C#N)SC1 | 100% | 90% | 100%
31 | CCCC1(C#N)SCC(N(C)C)CS1 (stereo unspecified) | 30% | 70% | 100%
32 | CCOC(=O)C1SCC(N(C)C)CS1 (stereo unspecified) | 45% | 100% | 80%
33 | CC(=O)C1SCC(N(C)C)CS1 (stereo unspecified) | 65% | 100% | 100%
34 | CN(C)C1CSC(C(=O)c2ccccc2)SC1 (stereo unspecified) | 80% | 50% | 100%
35 | CN(C)C1CSC(C#N)SC1 (stereo unspecified) | 30% | 80% | 100%
36 | C/C(=N\Nc1ccc(Br)cc1)C1SCC(N(C)C)CS1 (stereo unspecified) | 45% | 80% | 100%
37 | CN(C)C1CSSC1 [NEREISTOXIN] | – | 30% | 100%
